Test results from US20240190855A1 (Relay Therapeutics, Inc., priority 2021, published 2024).

Assays:
[1] = biological target: T1, CDK2/Cyclin E complex (Homo sapiens, UniProt P24941); test: CDK2/Cyclin E fluorescence-based microfluidic mobility shift assay (CDK2 Biochemical Caliper Assay); conditions: read-out: Biochemical CDK2/CyclinE Caliper IC50
T1 construct: purchased Eurofins 14-475
Method in brief: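 Microfluidic mobility-shift readout after EDTA termination measured phosphorylation of fluorescent FL Peptide 18 (1.5 uM final) in a 20 hr room-temperature reaction. Compounds were tested at 11 concentrations (3-fold).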

[2] = biological target: target tagged with nanoLuciferase in 293-NB2 cells (Homo sapiens, UniProt P24941); test: nanoBRET TE Intracellular Kinase Assay (Cell nanoBRET Assay); assay type: cell-based
Protocol: Compounds described herein were also tested in a nanoBRET TE Intracellular Kinase Assay. Test compounds were prepared in a DMSO stock solution. 45 uL of stock solution was transferred to a 384 well plate (Greiner, 781201), and a 3-fold 11-point dilution was performed. 293-NB2 cells expressing target tagged with nanoLuciferase were diluted in cell growth media (DMEM+10% FBS+1% Pen/Strep media) and a 40 uL cell solution of 7.5E4 cells/mL was seeded in a separate 384 well cell culture plate and incubated overnight at 37° C./5% CO2/100% humidity. […] 80 nL of each concentration of compound was transferred from the compound plate to a corresponding well in the cell culture plate by Echo550 liquid handler. The plates were incubated for 2 hrs at 37° C./5% CO2/100% humidity. […] Chemiluminescence was then read on an EnVision reader (PerkinElmer).

Structure (SMILES) | IC50 [1] | IC50 [2]
Cc1cc(CC(=O)Nc2ncn([C@@H]3CC[C@H](OC(=O)NC4(C)CC4)C3)n2)on1 (single isomer, unassigned) [Example 40] | 1000 to 100000 nM | 1000 to 100000 nM
CC(C)NC(=O)O[C@@H]1CC[C@H](c2cc(NC(=O)Cc3cnc4ncnn4c3)n[nH]2)C1 [Example 107] | 250 to 1000 nM | 1000 to 100000 nM
Cc1cc(CC(=O)Nc2cc([C@@H]3CC[C@@H](CC(=O)NC4(C)CC4)C3)[nH]n2)on1 (single isomer, unassigned) [Example 31] | 1000 to 100000 nM | 1000 to 100000 nM
CNC(=O)O[C@@H]1CC[C@H](c2cc(NC(=O)Cc3cc(C)no3)n[nH]2)C1 [Example 42] | 100 to 250 nM | 1000 to 100000 nM
CC(C)NC(=O)O[C@@H]1CC[C@H](c2cc(NC(=O)c3c[n+](C(C)(C)C)nn3C)n[nH]2)C1 [Example 19] | 250 to 1000 nM | 1000 to 100000 nM
Cc1cc(CC(=O)Nc2cc([C@H]3C[C@@H](OC(=O)NC(C)C)C3)[nH]n2)on1 [Example 110] | ≤ 100 nM | 1000 to 100000 nM
Cc1cc(CC(=O)Nc2cc([C@H]3CC[C@@H](Oc4nnccc4C)C3)[nH]n2)on1 (single isomer, unassigned) [Example 119] | ≤ 100 nM | 250 to 1000 nM
Cc1cc(CC(=O)Nc2cc([C@H]3CC[C@@H](NC(=O)NC(C)C)C3)[nH]n2)on1 (single isomer, unassigned) [Example 83] | 1000 to 100000 nM | 1000 to 100000 nM
Cc1cc(CC(=O)Nc2cc([C@H]3CC[C@@H](OC(N)=O)C3)[nH]n2)on1 (racemic) [Example 4] | 250 to 1000 nM | 1000 to 100000 nM
CC(C)NC(=O)O[C@@H]1CC[C@H](c2cc(NC(=O)Cc3ccnn3C)n[nH]2)C1 [Example 18] | ≤ 100 nM | 250 to 1000 nM
Cc1cc(CC(=O)Nc2cc([C@H]3CC[C@@H](OC(=O)NC(C)C)CC3)[nH]n2)on1 [Example 116] | ≤ 100 nM | 250 to 1000 nM
Cc1cc(CC(=O)Nc2cc([C@H]3CC[C@@H](N4CC(C)(C)NC4=O)C3)[nH]n2)on1 (single isomer, unassigned) [Example 117] | ≤ 100 nM | 1000 to 100000 nM
CC(C)NC(=O)O[C@@H]1CC[C@H](c2cc(NC(=O)Cn3nnc4ccccc4c3=O)n[nH]2)C1 [Example 41] | ≤ 100 nM | 1000 to 100000 nM
CC(C)NC(=O)O[C@@H]1CC[C@H](c2cc(NC(=O)c3ccnc4ncsc34)n[nH]2)C1 [Example 13] | ≤ 100 nM | ≤ 100 nM
C=C(C)c1ccncc1O[C@H]1CC[C@@H](c2cc(NC(=O)Cc3cc(C)no3)n[nH]2)C1 (single isomer, unassigned) [Example 58] | ≤ 100 nM | ≤ 100 nM
Cc1cc(CC(=O)Nc2cc([C@H]3CC[C@H](C(=O)NC(C)C)CC3)[nH]n2)on1 [Example 56] | 1000 to 100000 nM | 1000 to 100000 nM
CC(C)NC(=O)O[C@@H]1CC[C@H](c2cc(NC(=O)Cc3ccccc3)n[nH]2)C1 [Example 12] | ≤ 100 nM | 100 to 250 nM
Cc1cc(CC(=O)Nc2cc([C@@H]3CCC[C@H](OC(=O)NC4(C)CC4)CC3)[nH]n2)on1 (single isomer, unassigned) [Example 24] | 100 to 250 nM | 250 to 1000 nM
CC(C)NC(=O)O[C@@H]1CC[C@H](c2cc(NC(=O)Cc3ccccc3S(C)(=O)=O)n[nH]2)C1 [Example 14] | ≤ 100 nM | 100 to 250 nM
Cc1cc(CC(=O)Nc2cc([C@H]3CC[C@@H](OC(=O)NCCC(C)(C)O)C3)[nH]n2)on1 [Example 23] | 100 to 250 nM | 1000 to 100000 nM
C=C(C)c1ccncc1O[C@@H]1CC[C@H](c2cc(NC(=O)Cc3cc(C)no3)n[nH]2)C1 (single isomer, unassigned) [Example 57] | ≤ 100 nM | ≤ 100 nM
Cc1cc(CC(=O)Nc2cc([C@H]3CC[C@@H](CC(=O)NC4(C)CC4)C3)[nH]n2)on1 (single isomer, unassigned) [Example 28] | 1000 to 100000 nM | 1000 to 100000 nM
CCC(=O)O[C@@H]1CC[C@H](c2cc(NC(=O)Cc3cc(C)no3)n[nH]2)C1 [Example 115] | 100 to 250 nM | 1000 to 100000 nM
Cc1cc(CC(=O)Nc2cc([C@H]3CC[C@@H](N4CC(C)(C)NC4=O)C3)[nH]n2)on1 (single isomer, unassigned) [Example 91] | ≤ 100 nM | 1000 to 100000 nM
CC(C)NC(=O)O[C@H]1CC[C@@H](c2cc(NC(=O)c3ccnn3C)n[nH]2)C1 [Example 6] | ≤ 100 nM | 100 to 250 nM
CC(C)NC(=O)O[C@@H]1CC[C@H](c2cc(NC(=O)c3ccnn3C)n[nH]2)C1 [Example 5] | ≤ 100 nM | ≤ 100 nM
